# Data taken from patent US11339161B2, “Triazolo pyridines as modulators of gamma-secretase” (Boehringer Ingelheim International GmbH, priority 2017, dated 2022).
# Like-named read-outs stand apart in the source and are kept apart here.
# What was measured:
# [1] = target: LYN B (Homo sapiens, UniProt P07948); test: Z'-LYTE SelectScreen biochemical kinase assay LYN B
# Text: (§1) Thermo Fisher Scientific SelectScreen™ Biochemical Kinase Profiling Service Z′-LYTE™ Screening Protocol and Assay Conditions Assay Theory
# (§2) The […] biochemical assay employs a fluorescence-based, coupled-enzyme format and is based on the differential sensitivity of phosphorylated and non-phosphorylated peptides to proteolytic cleavage. The peptide substrate is labeled with two fluorophores—one at each end—that make up a FRET pair. In the primary reaction, the kinase transfers the gamma-phosphate of ATP to a single tyrosine, serine or threonine residue in a synthetic FRET-peptide. In the secondary reaction, a site-specific protease recognizes and cleaves non-phosphorylated FRET-peptides. Phosphorylation of FRET-peptides suppresses cleavage by the Development Reagent. Cleavage disrupts FRET between the donor (i.e., coumarin) and acceptor (i.e., fluorescein) fluorophores on the FRET-peptide, whereas uncleaved, phosphorylated FRET-peptides maintain FRET. A ratiometric method, which calculates the ratio (Emission Ratio=Coumarin emission (445 nm)/Fluorescein emission (520 nm)) of donor emission to acceptor emission after excitation of the donor fluorophore at 400 nm, is used to quantitate reaction progress, as shown in the equation below. A significant benefit of this ratiometric method for quantitating reaction progress is the elimination of well-to-well variations in FRET-peptide concentration and signal intensities. As a result, the assay yields very high Z′-factor values (>0.7) at a low percent phosphorylation. Both cleaved and uncleaved FRET-peptides contribute to the fluorescence signals and therefore to the Emission Ratio. The extent of phosphorylation of the FRET-peptide can be calculated from the Emission Ratio. The Emission Ratio will remain low if the FRET-peptide is phosphorylated (i.e., no kinase inhibition) and will be high if the FRET-peptide is non-phosphorylated (i.e., kinase inhibition).
# (§3) The Test Compounds are screened in 1% DMSO (final) in the well. For 10 point titrations, 3-fold serial dilutions are conducted from the starting concentration of the customer's choosing.
# (§4) All Peptide/Kinase Mixtures are diluted to a 2× working concentration in the appropriate Kinase Buffer (see section Kinase Specific Assay Conditions for a complete description).
# (§5) All ATP Solutions are diluted to a 4× working concentration in Kinase Buffer (50 mM HEPES pH 7.5, 0.01% BRIJ-35, 10 mM MgCl2, 1 mM EGTA). ATP Km apparent is previously determined using a Z″-LYTE assay.
# (§6) The Development Reagent is diluted in Development Buffer (see section Kinase-Specific Assay Conditions—Direct and Cascade for a complete description).
# (§7) Bar-coded Corning, low volume NBS, black 384-well plate (Corning Cat. #4514) • 1. 100 nL—100× Test Compound in 100% DMSO • 2. 2.4 μL—Kinase buffer • 3. 5 μL—2× Peptide/Kinase Mixture • 4. 2.5 μL—4×ATP Solution • 5. 30—second plate shake • 6. 60—minute Kinase Reaction incubation at room temperature • 7. 5 μL—Development Reagent Solution • 8. 30—second plate shake • 9. 60—minute Development Reaction incubation at room temperature • 10. Read on fluorescence plate reader and analyze the data Z′-LYTE Assay Controls
# (§8) SelectScreen Kinase Profiling Service uses XLfit from IDBS. The dose response curve is curve fit to model number 205 (sigmoidal dose-response model).
# (§9) The 2×LYN B/Tyr 02 mixture is prepared in 50 mM HEPES pH 7.5, 0.01% BRIJ-35, 10 mM MgCl2, 1 mM EGTA. The final 10 μL Kinase Reaction consists of 0.85-14.8 ng LYN B and 2 μM Tyr 02 in 50 mM HEPES pH 7.5, 0.01% BRIJ-35, 10 mM MgCl2, 1 mM EGTA. After the 1 hour Kinase Reaction incubation, 5 μL of a 1:128 dilution of Development Reagent A is added.
# [2] = target: CDK5/p35 (Homo sapiens, UniProt Q00535); test: Z'-LYTE SelectScreen biochemical kinase assay CDK5/p35
# Text: as §1, §2, §3, §4, §5, §6, §7, §8
# as §9, with “2×CDK5/p35/Ser/Thr 12” for “2×LYN B/Tyr 02”, “0.14-1.3” for “0.85-14.8”, “CDK5/p35” for “LYN B”, “Ser/Thr 12” for “Tyr 02”, “1:4096” for “1:128”
# [3] = target: CSF1R (FMS) (Homo sapiens, UniProt P07333); test: Z'-LYTE SelectScreen biochemical kinase assay CSF1R (FMS)
# Text: as §1, §2, §3, §4, §5, §6, §7, §8
# as §9, with “The 2×CSF1R (FMS)/Tyr 01” for “The 2×LYN B/Tyr 02”, “of 0.2-40” for “of 0.85-14.8”, “ng CSF1R (FMS)” for “ng LYN B”, “Tyr 01” for “Tyr 02”, “a 1:256” for “a 1:128”, “Reagent B” for “Reagent A”
# [4] = target: FLT4 (VEGFR3) (Homo sapiens, UniProt P35916); test: Z'-LYTE SelectScreen biochemical kinase assay FLT4 (VEGFR3)
# Text: as §1, §2, §3, §4, §5, §6, §7, §8
# The 2×FLT4 (VEGFR3)/Tyr 04 mixture is prepared in 50 mM HEPES pH 7.5, 0.01% BRIJ-35, 10 mM MgCl2, 4 mM MnCl2, 1 mM EGTA, 2 mM DTT. The final 10 μL Kinase Reaction consists of 2-10.5 ng FLT4 (VEGFR3) and 2 μM Tyr 04 in 50 mM HEPES pH 7.5, 0.01% BRIJ-35, 10 mM MgCl2, 2 mM MnCl2, 1 mM EGTA, 1 mM DTT. After the 1 hour Kinase Reaction incubation, 5 μL of a 1:64 dilution of Development Reagent B is added.
# [5] = 10 μmolar compound concentration, ATP at Km app, read-out: LYN B inhibition
# [6] = read-out: % Inhibition mean LYN B
# [7] = 10 μmolar compound concentration, ATP at Km app, read-out: CDK5/p35 inhibition
# [8] = read-out: % Inhibition mean CDK5/p35
# [9] = 10 μmolar compound concentration, ATP at Km app, read-out: CSF1R (FMS) inhibition
# [10] = read-out: % Inhibition mean CSF1R (FMS)
# [11] = 10 μmolar compound concentration, ATP at Km app, read-out: FLT4 (VEGFR3) inhibition
# [12] = read-out: % Inhibition mean FLT4 (VEGFR3)
# Chain of LYN B (P07948 1-491 isoform P07948-2): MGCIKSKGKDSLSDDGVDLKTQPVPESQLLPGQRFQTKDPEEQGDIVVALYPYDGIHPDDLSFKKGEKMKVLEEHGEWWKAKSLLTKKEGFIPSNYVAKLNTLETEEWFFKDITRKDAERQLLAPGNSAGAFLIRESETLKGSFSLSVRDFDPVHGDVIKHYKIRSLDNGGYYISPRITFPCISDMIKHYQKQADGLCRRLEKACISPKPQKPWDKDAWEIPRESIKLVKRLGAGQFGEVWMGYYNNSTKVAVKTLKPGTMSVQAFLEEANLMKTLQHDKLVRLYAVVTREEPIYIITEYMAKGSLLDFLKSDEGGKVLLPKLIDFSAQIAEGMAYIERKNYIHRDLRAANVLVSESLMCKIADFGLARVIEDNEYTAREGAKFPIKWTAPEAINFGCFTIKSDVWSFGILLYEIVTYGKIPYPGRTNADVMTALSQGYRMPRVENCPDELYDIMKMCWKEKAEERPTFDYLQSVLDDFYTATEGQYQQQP
# Chain of FLT4 (VEGFR3) (P35916 25-1363): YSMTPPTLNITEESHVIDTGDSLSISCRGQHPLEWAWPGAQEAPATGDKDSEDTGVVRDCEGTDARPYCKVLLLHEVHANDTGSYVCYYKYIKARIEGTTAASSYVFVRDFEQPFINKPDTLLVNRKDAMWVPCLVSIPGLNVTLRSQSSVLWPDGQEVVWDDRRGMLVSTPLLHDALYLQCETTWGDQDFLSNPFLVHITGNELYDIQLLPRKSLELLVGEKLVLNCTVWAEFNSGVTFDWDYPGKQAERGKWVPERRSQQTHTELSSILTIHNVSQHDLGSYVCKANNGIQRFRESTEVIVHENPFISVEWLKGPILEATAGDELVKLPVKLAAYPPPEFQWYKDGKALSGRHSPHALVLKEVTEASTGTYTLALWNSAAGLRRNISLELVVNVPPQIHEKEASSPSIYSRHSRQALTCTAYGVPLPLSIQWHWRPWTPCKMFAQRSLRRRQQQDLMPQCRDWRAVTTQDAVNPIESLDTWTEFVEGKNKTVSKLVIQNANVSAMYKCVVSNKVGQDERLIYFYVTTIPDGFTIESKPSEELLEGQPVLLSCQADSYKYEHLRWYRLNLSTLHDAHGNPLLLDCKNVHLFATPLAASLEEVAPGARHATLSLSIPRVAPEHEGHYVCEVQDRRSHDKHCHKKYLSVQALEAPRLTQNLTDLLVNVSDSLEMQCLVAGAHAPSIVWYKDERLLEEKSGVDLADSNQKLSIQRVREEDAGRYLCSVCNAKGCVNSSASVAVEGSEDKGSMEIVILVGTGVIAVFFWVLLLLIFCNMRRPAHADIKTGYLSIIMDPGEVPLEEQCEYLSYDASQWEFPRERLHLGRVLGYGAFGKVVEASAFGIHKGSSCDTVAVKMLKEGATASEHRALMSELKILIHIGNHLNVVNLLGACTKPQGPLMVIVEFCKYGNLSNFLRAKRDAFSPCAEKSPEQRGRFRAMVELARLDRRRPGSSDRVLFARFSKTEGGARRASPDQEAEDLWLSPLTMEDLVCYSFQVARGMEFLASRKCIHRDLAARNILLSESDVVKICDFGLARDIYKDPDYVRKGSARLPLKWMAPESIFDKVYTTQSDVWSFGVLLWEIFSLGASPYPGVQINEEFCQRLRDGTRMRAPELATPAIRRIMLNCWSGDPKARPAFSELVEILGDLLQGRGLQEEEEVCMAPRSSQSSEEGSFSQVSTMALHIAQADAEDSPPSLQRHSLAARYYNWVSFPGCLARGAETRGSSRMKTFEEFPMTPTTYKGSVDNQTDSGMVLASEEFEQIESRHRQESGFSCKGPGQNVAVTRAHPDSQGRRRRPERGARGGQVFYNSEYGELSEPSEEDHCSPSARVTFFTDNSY
# Chain of CSF1R (FMS) (P07333 20-972): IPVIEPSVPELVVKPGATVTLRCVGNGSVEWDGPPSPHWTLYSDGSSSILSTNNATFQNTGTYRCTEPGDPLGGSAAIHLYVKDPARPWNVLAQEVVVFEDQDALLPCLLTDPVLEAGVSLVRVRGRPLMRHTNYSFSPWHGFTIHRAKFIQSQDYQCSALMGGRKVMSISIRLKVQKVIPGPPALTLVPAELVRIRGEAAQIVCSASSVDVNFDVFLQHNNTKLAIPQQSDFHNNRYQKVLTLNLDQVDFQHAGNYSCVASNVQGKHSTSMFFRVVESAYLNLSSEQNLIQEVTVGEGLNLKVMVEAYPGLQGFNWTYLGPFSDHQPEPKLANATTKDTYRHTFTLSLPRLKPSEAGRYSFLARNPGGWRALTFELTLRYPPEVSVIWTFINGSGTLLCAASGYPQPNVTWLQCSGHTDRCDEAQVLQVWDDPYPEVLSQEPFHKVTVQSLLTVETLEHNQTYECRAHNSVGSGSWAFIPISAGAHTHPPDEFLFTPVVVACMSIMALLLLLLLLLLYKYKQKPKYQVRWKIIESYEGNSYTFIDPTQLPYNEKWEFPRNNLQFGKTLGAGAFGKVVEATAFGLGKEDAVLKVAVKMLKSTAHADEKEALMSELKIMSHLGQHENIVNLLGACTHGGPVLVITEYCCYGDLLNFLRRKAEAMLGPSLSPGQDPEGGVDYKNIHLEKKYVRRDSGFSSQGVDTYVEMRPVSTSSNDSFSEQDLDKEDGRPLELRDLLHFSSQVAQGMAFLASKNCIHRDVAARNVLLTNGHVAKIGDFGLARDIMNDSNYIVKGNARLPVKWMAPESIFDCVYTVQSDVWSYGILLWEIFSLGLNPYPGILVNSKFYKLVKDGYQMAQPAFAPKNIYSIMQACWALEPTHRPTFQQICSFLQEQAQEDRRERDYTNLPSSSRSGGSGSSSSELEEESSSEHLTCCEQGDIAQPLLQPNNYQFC
# Chain of CDK5/p35 (Q00535 whole entry): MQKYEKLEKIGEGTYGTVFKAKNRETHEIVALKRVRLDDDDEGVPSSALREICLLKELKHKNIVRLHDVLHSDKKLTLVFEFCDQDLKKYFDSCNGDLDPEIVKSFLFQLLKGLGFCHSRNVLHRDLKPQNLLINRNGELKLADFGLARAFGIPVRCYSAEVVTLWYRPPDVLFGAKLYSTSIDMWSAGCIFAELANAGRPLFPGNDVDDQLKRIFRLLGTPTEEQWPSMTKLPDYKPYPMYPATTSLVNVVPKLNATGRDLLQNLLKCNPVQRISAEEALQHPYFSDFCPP
# Chain of CDK5/p35 (Q15078 whole entry partner): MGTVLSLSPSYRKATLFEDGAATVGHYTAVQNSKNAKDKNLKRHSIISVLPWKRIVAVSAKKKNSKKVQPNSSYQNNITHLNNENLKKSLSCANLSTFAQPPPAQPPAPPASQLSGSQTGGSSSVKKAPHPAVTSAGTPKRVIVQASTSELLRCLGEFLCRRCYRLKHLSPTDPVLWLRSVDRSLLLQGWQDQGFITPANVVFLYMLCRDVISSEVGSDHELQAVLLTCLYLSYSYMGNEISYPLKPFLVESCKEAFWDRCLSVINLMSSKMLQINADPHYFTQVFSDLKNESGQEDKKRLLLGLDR
"inhibition at 10 µM [1, 5]","inhibition at 10 µM [1, 6]","inhibition at 10 µM [2, 7]","inhibition at 10 µM [2, 8]","inhibition at 10 µM [3, 9]","inhibition at 10 µM [3, 10]","inhibition at 10 µM [4, 11]","inhibition at 10 µM [4, 12]",inhibition at 10 µM ([1]; read-out: % Inhibition mean),inhibition at 10 µM ([2]; read-out: % Inhibition mean),inhibition at 10 µM ([3]; read-out: % Inhibition mean),inhibition at 10 µM ([4]; read-out: % Inhibition mean),Structure (SMILES)
< 40%,22%,< 40%,28%,40 to 80%,42%,< 40%,39%,,,,,"CCn1ncc2c1CCC(Nc1nc3c(-c4cccc(Cl)c4)cccn3n1)C2 (stereo not shown) [Example 59, [8-(3-Chloro-phenyl)-[1,2,4]triazolo[1,5-a]pyridine-2-yl]-(1-ethyl-4,5,6,7-tetrahydro-1H-indazol-5-yl)-amine]"
< 40%,21%,< 40%,13%,< 40%,15%,< 40%,13%,,,,,"CCCCCn1ncc2c1CCC(Nc1nc3c(-c4ccc(F)cc4C)cccn3n1)C2 (stereo not shown) [Example 47, [8-(4-fluoro-2-methyl-phenyl)-[1,2,4]triazolo[1,5-a]pyridine-2-yl]-(1-pentyl-4,5,6,7-tetrahydro-1H-indazol-5-yl)-amine]"
< 40%,18%,40 to 80%,42%,> 80%,82%,> 80%,86%,,,,,"Cc1cc(F)ccc1-c1cccn2nc(Nc3ccc4c(cnn4C)c3)nc12 [Example 9, [8-(4-fluoro-2-methyl-phenyl)-[1,2,4]triazolo[1,5-a]pyridine-2-yl]-(1-methyl-1H-indazol-5-yl)-amine]"
> 80%,,> 80%,,> 80%,,> 80%,,89%,90%,90%,94%,"Fc1cccc(-c2cccn3nc(Nc4ccc5[nH]cnc5c4)nc23)c1 [Cpd. 293 in WO09155551, reference compound]"
< 40%,17%,40 to 80%,44%,40 to 80%,42%,< 40%,22%,,,,,"Cc1cc(F)ccc1-c1cccn2nc(NC3CCc4c(cnn4C)C3)nc12 (stereo not shown) [Example 10, [8-(4-fluoro-2-methyl-phenyl)-[1,2,4]triazolo[1,5-a]pyridine-2-yl]-(1-methyl-4,5,6,7-tetrahydro-1H-indazol-5-yl)-amine]"
< 40%,19%,< 40%,39%,< 40%,34%,< 40%,31%,,,,,"CCn1ncc2c1CCC(Nc1nc3c(-c4ccc(F)cc4C)cccn3n1)C2 (stereo not shown) [Example 42, (1-Ethyl-4,5,6,7-tetrahydro-1H-indazol-5-yl)-[8-(4-fluoro-2-methyl-phenyl)-[1,2,4]triazolo[1,5-a]pyridine-2-yl]-amine]"
< 40%,24%,40 to 80%,53%,40 to 80%,62%,40 to 80%,62%,,,,,"CCn1ncc2c1CCC(Nc1nc3c(-c4ccc(OC)nc4)cccn3n1)C2 (stereo not shown) [Example 71, (1-Ethyl-4,5,6,7-tetrahydro-1H-indazol-5-yl)-[8-(6-methoxy-pyridin-3-yl)-[1,2,4]triazolo[1,5-a]pyridine-2-yl]-amine]"
> 80%,,> 80%,,> 80%,,> 80%,,97%,88%,95%,96%,"CC1(C)NC(=O)c2ccc(Nc3nc4c(-c5cccc(F)c5)cccn4n3)cc21 [Cpd. 302 in WO09155551, reference compound]"
